Test results as given in publication PMC7312356 (International Journal of Molecular Sciences, 2020).

Target: T1, SgGAPDH (Streptococcus gordonii, UniProt Q68AZ3)
T1 construct: gene GAPDH
Assay: biochemical

T1 sequence (Q68AZ3 entry or part of it): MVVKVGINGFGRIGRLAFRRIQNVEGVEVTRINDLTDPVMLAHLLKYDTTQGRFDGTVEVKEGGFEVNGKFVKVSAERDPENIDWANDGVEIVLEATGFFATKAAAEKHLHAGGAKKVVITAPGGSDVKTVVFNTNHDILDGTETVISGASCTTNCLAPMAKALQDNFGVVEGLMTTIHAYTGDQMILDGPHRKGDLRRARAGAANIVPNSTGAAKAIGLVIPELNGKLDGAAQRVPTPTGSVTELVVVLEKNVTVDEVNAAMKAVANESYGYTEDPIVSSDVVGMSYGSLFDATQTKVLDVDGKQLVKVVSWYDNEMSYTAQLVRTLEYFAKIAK

C=CC1=C(C)C2=Cc3c(C=C)c(C)c4[n]3[Fe]([Cl])[n]3c(c(C)c(CCC(=O)O)c3=CC3=NC(=C4)C(C)=C3CCC(=O)O)=CC1=N2 [Fe(III)heme]
Kd: 1700 nM
